How the values were obtained:
[1] = test system: hair thinning; test: Scalp improvement effect in nine regions in androgenetic alopecia patients (rating of hair growth effect); format: in vivo, human; conditions: four AGA male patients, oral 5 mg once a day, 2 months
From the text: In this example, the scalp was divided into nine regions to observe the effect of the treatment therein. In this manner, even when each patient has both a good portion (portion having a large hair volume) and a poor portion (portion having a small hair volume), influence on the good portion and influence on the poor portion can be separately evaluated, and thus, it can be expected that highly accurate evaluation can be realized. Subjects were four androgenetic alopecia (AGA) male patients (of 42 to 63 years old) having aggravated as compared with a state 1 year ago. Two patients out of these patients had continuously taken Finasteride, an anti-androgen agent, respectively from 4 years ago and 7 years ago, and continuously took it after starting the following treatment. In this example, pioglitazone, that is a PPARγ agonist, was orally administered to these patients. […] A photograph of each patient taken from directly above 10 to 12 months before starting the treatment of this example, a photograph taken on the day of starting the treatment, and a photograph taken after 2 months from the start of the treatment were evaluated. […] A hair growth effect was evaluated by the 5 medical specialists in accordance with the following rating. […]

[2] = test system: CD163; test: Gene expression in human scalp tissue after pioglitazone treatment (qPCR); format: in vivo; conditions: whole scalp three times once every two months, before vs 6 months after first treatment
Description: (§1) A human subject was also checked. A suspension of pioglitazone was prepared in the same manner as in Example 2, and the whole amount of the suspension was applied to the head of a human subject. The PG treatment was performed on the whole scalp three times at a frequency of once every two months. A tissue around the test site was collected with a 3 mm punch before the treatment and 2 months after performing the treatment three times (6 months after the first treatment). The collected tissue was halved, and one half was fixed with 10% formalin, and stored under refrigeration. The other half was immersed in RNA Stabilization Solution (RNAlater, Thermo Fisher Scientific, Lithuania), and the resultant was frozen in liquid nitrogen, and stored at -80° C. Thereafter, the gene expression analysis was performed in the same manner as the rat gene expression analysis.
(§2) A difference (ΔCt), in an expression level of mRNA, between ribosomal protein lateral stalk subunit P0 (Rp1P0) of a housekeeping gene and the target gene (average of Ct obtained from the qPCR reaction of each gene performed three times) was calculated, and in addition, a difference (ΔΔCt) in ΔCt between samples of the subject to be analyzed obtained before and after the treatment and a control (two persons not treated) was calculated. […]

[3] = test system: CD68; test: as above; format: in vivo; conditions: whole scalp three times once every two months, before vs 6 months after first treatment
Description: as §1, §2

Structure (SMILES): CCc1ccc(CCOc2ccc(CC3SC(=O)NC3=O)cc2)nc1 (stereo not shown) [pioglitazone]
- hair thinning in a site having a high degree of aggravation [1]: trends toward improvement were observed
- progress of hair thinning ([1]; rating by 5 medical specialists, FIG. 7B): the progress of hair thinning was at least stopped
- expression of CD163 [2]: found to increase
- expression of CD68 [3]: found to increase

Reference: patent US20230181553A1, “COMPOSITION FOR HAIR IMPROVEMENT” (Dr. Cherry Inc., priority 2020, published 2023)
